According to patent publication US20180369230A1, “TARGETED SELECTION OF PATIENTS FOR TREATMENT WITH SPECIFIC CORTISTATIN DERIVATIVES” (President and Fellows of Harvard College, priority 2015, published 2018):

How the values were obtained:
[1] = system: SET-2 cells; assay: Gene expression, gene set enrichment analysis (GSEA); assay type: cell-based, human; conditions: SET-2, 4 h 25 nM
Description: (§1) Leukemia cells were plated (12-well) in triplicate at 500,000-800,000 cells per ml and incubated in the presence of vehicle (0.1% DMSO) or CA (25 nM 3 h for K562, MOLM-14 and MV4;11; 10 nM 24 h for MOLM-14; 25 nM 4 h for SET-2, n=3 for each cell line). Cells were then washed twice with cold PBS, and snap frozen. RNA was isolated (RNeasy Plus Microkit, Qiagen or TRIzol, Life Technologies), processed, and, for K562, MOLM-14 and MV4;11, hybridized to the Human U133 Plus 2.0 microarray (Affymetrix). Microarrays were processed with Bioconductor packages affyQCReport for quality control and affy for background correction, summarization, and normalization using rma. Probe sets present in at least 1 sample (based on affy mas5call) and for which the interquartile range was >log2(1.2) were retained for further analysis. The limma Bioconductor package was used for differential expression analysis of CA-treated versus DMSO control samples (Benjamini-Hochberg adjusted P<0.05). SET-2 and HCT 116 gene expression was measured by RNA-seq. SET-2 RNA-seq libraries were prepared and processed using the Ion Torrent workflow. Reads were aligned in two passes, first with rnaStar (v.2.3.0e) then with BWA (v.0.7.5a) for remaining unmapped reads, both using default parameters. Mapped reads were merged and counted using HTSeq (v.0.5.3p3) with -s yes -m intersection-strict. The Bioconductor package DESeq was used for DE analysis (FDR<0.05 and twofold change) and normalization. HCT116 cells were grown to approximately 80% confluence and were treated with either 100 nM CA or DMSO for 3 h (n=3). Cells were then washed twice with cold PBS and scraped into TRIzol reagent (Life Technologies). After collecting the RNA, it was further purified using an RNeasy mini kit (Qiagen) with an on-column DNase I digestion. Libraries for Illumina sequencing were generated via the Illumina TruSEQ stranded mRNA prep kit. Samples were run in a single lane on an Illumina HiSEQ 2000 sequencer with a single read flow cell using 1×50-bp reads and a 6-cycle index read. Reads were mapped to the hg19 reference genome using Tophat2 v.2.0.6 with custom settings including the setting of -library-type fr- firstrand to appropriately account for the stranded nature of the protocol. HTSeq v.0.6.1 was used to obtain read counts over annotated genes and differentially expressed genes were called by DESeq v.1.10.1 with a padj value of less than 0.01. Counts were normalized for GSEA using the limma voom function. Expression data for the I-BET151 comparison were downloaded from ArrayExpress (https://www.ebi.ac.uk/arrayexpress, accession E-MTAB-774) and processed files used as is. Gene lists were submitted to the DAVID web server (http://david.abcc.ncifcrf.gov) for functional annotation. GSEA version 2.09 was carried out using signal-to-noise on natural values as the metric. Signatures included curated gene sets (C2, v.3) downloaded from the Broad's MSigDB as well as signatures curated from in-house and published data sets.
(§2) The curated gene sets were analyzed together with over 4,000 signatures including the Broad Molecular Signatures database (C2).

[2] = system: MOLM-14 cells; assay: as above; assay type: cell-based, human; conditions: MOLM-14, 3 h 25 nM
Description: as §1, §2

[3] = system: MV4;11-mCLP leukemia; assay: MV4;11 xenograft model; assay type: in vivo, mice
Description: The MV4;11 xenograft model was performed as previously described (Etchin, J. et al. Antileukemic activity of nuclear export inhibitors that spare normal hematopoietic cells. Leukemia 27, 66-74 (2013)). Two-million MV4;11-mCLP cells were injected into the tail vein of 7-week-old female non-obese diabetic-severe combined immuno-deficient (NOD-SCID)Il2rg^−/− (NSG) mice (The Jackson Laboratory) and tumour burden was assessed by bioluminescence imaging (BLI) using an IVIS Spectrum system (Caliper Life Sciences). Seven days after injection, leukaemia establishment was documented by BLI and mice were assigned to groups to achieve a similar mean BLI and treated intraperitoneally with vehicle (20% hydroxypropyl-β-cyclodextrin) or CA once daily for 15 days. After 30 days, blood counts were obtained (Hemavet 950 F, Drew Scientific) and spleen, femur and peripheral blood cells were collected and analysed by flow cytometry (LSR Fortessa, BD Biosciences) from three mice per group, having the highest, lowest and median BLI value. […]
(§3) Samples from all organs were then dissected and placed in nine cassettes per mouse. […] Survival was measured as the time from therapy initiation until moribund state. […]
as §3

Which results are given for Cortistatin A?
NES ([1]; signature: GATA1/GATA2/RUNX1/FLI1/SCL Binding Sites in Mks): 2.03; NES ([1]; signature: GATA1/SCL Binding sites in Mks): 2.27; NES ([2]; signature: Downregulated by RUNX1-RUNX1T1 in CD34+ cord blook cells): 2.50; NES ([2]; signature: Downregulated by RUNX1 knowckdown in Jurkat cells): 2.00; NES ([2]; signature: Downregulated by RUNX1 knowckdown in Kasumi-1 cells): 2.21; NES ([2]; signature: Upregulated by C/EBPα in Burkitt lymphoma cells): 2.56; NES ([2]; signature: Upregulated by C/EBPα in K562 cells): 2.22; NES ([2]; signature: Upregulated by C/EBPα in KCL22 cells): 2.22; NES ([2]; signature: Upregulated by RUNX1-RUNX1T1 knockdown in Kasumi-1 cells): 2.78; leukemia cells in the lungs (haematoxylin and eosin staining) ([3]; MV4;11 AML mice, Day 30, vs vehicle): fewer leukemia cells in the lungs; spleen weight ([3]; NSG mice, disseminated MV4;11-mCLP leukemia, once daily IP for 15 days, 15 days after stopping treatment): prevents spleen weight increase
